The values that follow come from patent publication US7973047B2, “Beta-Secretase modulators and methods of use” (Amgen Inc., priority 2010, dated 2011).

pIC50: −log10 of the molar value. Where only a bound is given, the exact number is not on record here.

This test concerns Aβ40 in conditioned medium of cells stably expressing Amyloid Precursor Protein (APP). Put plainly: BACE cell-based assay: Aβ40 in conditioned medium by sandwich ELISA. The note with it: cell based assay data, Table 4; unit inferred; read-out: Cell Assay. The method in brief:
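APP-stable cells grown 24 h in DMEM/10% FBS, then exposed to compounds for 24 h in a 10-point dose series starting at 100 or 10 μM, 0.1% DMSO final. Medium Aβ40 measured by pAb40/biotinylated 6E10 sandwich ELISA with Europium time-resolved fluorescence; IC50 from percent inhibition.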
Take `CC(=O)N[C@@H](Cc1ccccc1)[C@H](O)CN[C@H]1CC2(CCC2)Oc2ccc(-c3ccn(CC(C)C)n3)cc21` [compound 779]: the pIC50 was 6.72.

With `CC(=O)N[C@@H](Cc1cc(F)cc(F)c1)[C@H](O)CN[C@H]1CC2(CCC2)Oc2ccc(-c3ccn(CC(C)C)n3)cc21` [compound 780], the pIC50 was 5.78.

For the compound `CC(=O)N[C@@H](Cc1cc(F)cc(F)c1)[C@@H](O)CN[C@H]1CC2(CCC2)Oc2ccc(-n3cccn3)cc21` [compound 781], the pIC50 is 5.94.

In the case of `CC(=O)N[C@@H](Cc1cc(F)cc(F)c1)[C@H](O)CN[C@H]1CC2(CCC2)Oc2ccc(-n3ccnc3)cc21` [compound 782], the pIC50 is 7.09.

For `CC(=O)N[C@@H](Cc1ccccc1)[C@H](O)CN[C@H]1CC2(CCC2)Oc2ccc(-c3ccn(C)n3)cc21` [compound 783], the pIC50 was 5.49.

Regarding `CC(=O)N[C@@H](Cc1cc(F)cc(F)c1)[C@H](O)CN[C@H]1CC2(CCC2)Oc2ccc(-c3ccn(C)n3)cc21` [compound 784], the pIC50 was 5.78.

Turning to `CC(=O)N[C@@H](Cc1cc(F)cc(F)c1)[C@H](O)CN[C@H]1CC2(CCC2)Oc2ccc(-c3cccs3)cc21` [compound 785], the pIC50 is 5.53.

On to `CC(=O)N[C@@H](Cc1cc(F)cc(F)c1)[C@@H](O)CN[C@H]1CC2(CCC2)Oc2c1cc(Cl)cc2-n1cccn1` [compound 786], for which the pIC50 was 5.86.

As to `CC(=O)N[C@@H](Cc1cc(F)cc(F)c1)[C@H](O)CN[C@H]1CC2(CCC2)Oc2cc(Br)ccc21` [compound 787], the pIC50 is at most 5.00.

As to `CC(=O)Nc1ccc2c(c1)[C@@H](NC[C@@H](O)[C@H](Cc1cc(F)cc(F)c1)NC(C)=O)CC1(CCC1)O2` [compound 789], the pIC50 is 7.75.

For the compound `CC(=O)N[C@@H](Cc1cc(F)cc(F)c1)[C@H](O)CN[C@H]1CC2(CCC2)Oc2ccc(N[C@@H]3CCOC3)cc21` [compound 790], the pIC50 was 7.23.

`CC(=O)N[C@@H](Cc1cc(F)cc(F)c1)[C@H](O)CN[C@H]1CC2(CCC2)Oc2ccc(-n3nccn3)cc21` [compound 791]: the pIC50 is 6.10.

For the compound `CC(=O)N[C@@H](Cc1cc(F)cc(F)c1)[C@H](O)CN[C@H]1CC2(CCC2)Oc2ccc(-n3cncn3)cc21` [compound 792], the pIC50 was 6.86.

For `CC(=O)N[C@@H](Cc1cc(F)cc(F)c1)[C@H](O)CN[C@H]1CC2(CCC2)Oc2ccc(N3CCCC3=O)cc21` [compound 793], the pIC50 was 6.45.

For `CC(=O)N[C@@H](Cc1ccccc1)[C@H](O)CN[C@H]1CC(C)(C)Oc2cnc(CC(C)(C)C)cc21` [compound 794], the pIC50 is 7.46.

Take `CC(=O)N[C@@H](Cc1cc(F)cc(F)c1)[C@H](O)CN[C@H]1CC2(CCC2)Oc2ccc(N3CCC3=O)cc21` [compound 795]: the pIC50 is 6.59.

Consider `CC(=O)N[C@@H](Cc1cc(F)cc(Cl)c1)[C@H](O)CN[C@H]1CC(C)(C)Oc2cnc(CC(C)(C)C)cc21` [compound 796], for which the pIC50 was 8.08.

With `CCC(=O)N[C@@H](Cc1cc(F)cc(Cl)c1)[C@H](O)CN[C@H]1CC(C)(C)Oc2cnc(CC(C)(C)C)cc21` [compound 797], the pIC50 was 7.95.

On to `CC(=O)N[C@@H](Cc1cccc(F)c1)[C@H](O)CN[C@H]1CC(C)(C)Oc2cnc(CC(C)(C)C)cc21` [compound 798], for which the pIC50 is 8.17.

For `CC(=O)N[C@@H](Cc1ccc(F)cc1)[C@H](O)CN[C@H]1CC(C)(C)Oc2cnc(CC(C)(C)C)cc21` [compound 799], the pIC50 is 7.34.

Take `CC(=O)N[C@@H](Cc1cc(F)cc(F)c1)[C@H](O)CN[C@H]1CC(C)(C)Oc2cnc(CC(C)(C)C)cc21` [compound 800]: the pIC50 was 8.45.

Consider `CC(=O)N[C@@H](Cc1cc(F)cc(F)c1)[C@H](O)CN[C@H]1CC2(CCC2)Oc2cc(F)c(Br)cc21` [compound 801], for which the pIC50 is 6.24.

Consider `CC(=O)N[C@@H](Cc1cc(F)cc(F)c1)[C@H](O)CN[C@H]1CC(C)(C)Oc2cc(F)c(Br)cc21` [compound 802], for which the pIC50 was 6.28.

As to `CC(=O)N[C@@H](Cc1cc(F)cc(F)c1)[C@H](O)CN[C@H]1CC2(CCC2)Oc2cc(F)c(N[C@@H]3CCOC3)cc21` [compound 803], the pIC50 was 6.94.

For `CC(=O)N[C@@H](Cc1cc(F)cc(F)c1)[C@H](O)CN[C@H]1CC2(CCC2)Oc2cc(F)ccc21` [compound 804], the pIC50 is 5.53.

As to `CC(=O)N[C@@H](Cc1cc(F)cc(NC2CCOCC2)c1)[C@H](O)CN[C@H]1CC2(CCC2)Oc2ncc(CC(C)(C)C)cc21` [compound 805], the pIC50 is 8.29.

`CC(=O)N[C@@H](Cc1cc(F)cc(F)c1)[C@H](O)CN[C@H]1CC2(CCC2)Oc2cc(F)c(NC3CCOCC3)cc21` [compound 806]: the pIC50 is 6.34.

Regarding `CC(=O)N[C@@H](Cc1cccc(F)c1)[C@H](O)CN[C@H]1CC2(CCC2)Oc2cc(F)c(-n3cccn3)cc21` [compound 807], the pIC50 is 6.31.

In the case of `CC(=O)N[C@@H](Cc1ccc(F)cc1)[C@H](O)CN[C@H]1CC2(CCC2)Oc2cc(F)c(-n3cccn3)cc21` [compound 808], the pIC50 was 5.71.

As for `CC(=O)N[C@@H](CC1CCC1)[C@H](O)CN[C@H]1CC2(CCC2)Oc2ncc(CC(C)(C)C)cc21` [compound 809, N-((1S,2R)-1-(cyclobutylmethyl)-3-(((4′S)-6′-(2,2-dimethylpropyl)-3′,4′-dihydrospiro[cyclobutane-1,2′-pyrano[2,3-b]pyridin]-4′-yl)amino)-2-hydroxypropyl)acetamide], the pIC50 is 7.10.

On to `CC(=O)N[C@@H](Cc1ccccc1Br)[C@H](O)CN[C@H]1CC2(CCC2)Oc2ncc(CC(C)(C)C)cc21` [compound 810], for which the pIC50 is 6.70.

Take `CC(=O)N[C@@H](Cc1c(F)cc(F)cc1F)[C@H](O)CN[C@H]1CC2(CCC2)Oc2ncc(CC(C)(C)C)cc21` [compound 813]: the pIC50 was 7.00.

As for `CC(=O)N[C@@H](Cc1ccc(F)c(F)c1F)[C@H](O)CN[C@H]1CC2(CCC2)Oc2ncc(CC(C)(C)C)cc21` [compound 814], the pIC50 is 7.25.

Turning to `CC(=O)N[C@@H](Cc1c(F)cc(F)cc1F)[C@H](O)CN[C@H]1CC2(CCC2)Oc2ncc(CC(C)C)cc21` [compound 815], the pIC50 was 6.65.

Take `CC(=O)N[C@@H](Cc1ccc(F)c(F)c1F)[C@H](O)CN[C@H]1CC2(CCC2)Oc2ncc(CC(C)C)cc21` [compound 816]: the pIC50 was 6.86.

Take `CC(=O)N[C@@H](Cc1ccc(Cl)cc1)[C@H](O)CN[C@H]1CC2(CCCC2)Oc2ncc(CC(C)(C)C)cc21` [compound 817]: the pIC50 is 6.88.

With `CC(=O)N[C@@H](Cc1ccc(F)cc1)[C@H](O)CN[C@H]1CC2(CCC2)Oc2ncc(Cc3ccccc3)cc21` [compound 818], the pIC50 is 5.74.

Regarding `CC(=O)N[C@@H](Cc1ccccc1)[C@H](O)CN[C@H]1CC2(CCC2)Oc2ccc(CCCCCO)cc21` [compound 822], the pIC50 is 7.18.

As to `CC(=O)N[C@@H](Cc1ccccc1)[C@H](O)CN[C@H]1CC2(CCC2)Oc2ccc(OC(C)C)cc21` [compound 823, N-((2S,3R)-3-hydroxy-4-((S)-6-isopropoxy-2,2-spirocyclobutyl-chroman-4-ylamino)-1-phenylbutan-2-yl)acetamide], the pIC50 is 6.51.

Regarding `CC(=O)N[C@@H](Cc1cccnc1)[C@H](O)CN[C@H]1CC2(CCC2)Oc2ncc(CC(C)(C)C)cc21` [compound 824, N-((1S,2R)-3-(((4′S)-6′-(2,2-dimethylpropyl)-3′,4′-dihydrospiro[cyclobutane-1,2′-pyrano[2,3-b]pyridin]-4′-yl)amino)-2-hydroxy-1-(3-pyridinylmethyl)propyl)acetamide], the pIC50 is 8.63.

`CC(=O)N[C@@H](Cc1cccc(F)c1F)[C@H](O)CN[C@H]1CC2(CCC2)Oc2ncc(CC(C)(C)C)cc21` [compound 825]: the pIC50 is 8.36.

For the compound `CC(=O)N[C@@H](Cc1c(F)cccc1F)[C@H](O)CN[C@H]1CC2(CCC2)Oc2ncc(CC(C)(C)C)cc21` [compound 826], the pIC50 is 8.16.

In the case of `CC(=O)N[C@@H](Cc1cccc(F)c1)[C@H](O)CN[C@H]1CC2(CCC2)Oc2cnc(CC(C)(C)F)cc21` [compound 827], the pIC50 was 7.59.

`CC(=O)N[C@@H](Cc1ccc(Cl)cc1)[C@H](O)CN[C@H]1CC2(CCC2)Oc2ncc(CC(C)(C)F)cc21` [compound 828]: the pIC50 was 7.11.

As to `CC(=O)N[C@@H](CC1CCCN(C)C1)[C@H](O)CN[C@H]1CC2(CCC2)Oc2ncc(CC(C)(C)C)cc21` (stereo partly drawn) [compound 829], the pIC50 was 5.58.

Turning to `CC(=O)N[C@@H](Cc1cncc(F)c1)[C@H](O)CN[C@H]1CC2(CCC2)Oc2ncc(CC(C)(C)C)cc21` [compound 830, N-((1S,2R)-3-(((4′S)-6′-(2,2-dimethylpropyl)-3′,4′-dihydrospiro[cyclobutane-1,2′-pyrano[2,3-b]pyridin]-4′-yl)amino)-1-((5-fluoro-3-pyridinyl)methyl)-2-hydroxypropyl)acetamide], the pIC50 was 8.74.

`CC(=O)N[C@@H](Cc1cncc(F)c1)[C@@H](O)CN[C@H]1CC2(CCC2)Oc2ncc(CC(C)(C)C)cc21` [compound 831, N-((1S,2S)-3-(((4′S)-6′-(2,2-dimethylpropyl)-3′,4′-dihydrospiro[cyclobutane-1,2′-pyrano[2,3-b]pyridin]-4′-yl)amino)-1-((5-fluoro-3-pyridinyl)methyl)-2-hydroxypropyl)acetamide]: the pIC50 is 6.78.

As for `COc1ccc(C[C@H](NC(C)=O)[C@H](O)CN[C@H]2CC3(CCC3)Oc3ncc(CC(C)(C)C)cc32)cc1OC` [compound 832], the pIC50 was 8.03.

As for `CC(=O)N[C@@H](Cc1cccc(F)c1F)[C@H](O)CN[C@H]1CC2(CCC2)Oc2ncc(CC(C)(C)F)cc21` [compound 833], the pIC50 is 7.51.

`CC(=O)N[C@@H](Cc1ccc(F)c(Br)c1)[C@H](O)CN[C@H]1CC2(CCC2)Oc2ncc(CC(C)(C)F)cc21` [compound 834]: the pIC50 was 8.03.

On to `CC(=O)N[C@@H](Cc1cc(F)cc(F)c1)[C@H](O)CN[C@H]1CC2(CCC2)Oc2ncc(CC(C)(C)F)cc21` [compound 835], for which the pIC50 was 8.69.
